{"source": "patent US12116636B2", "about": "“Methods for evaluating tumor cell spheroids using 3D microfluidic cell culture device” (Dana-Farber Cancer Institute, Inc., priority 2017, dated 2024)", "tested_on": "PDOTS", "experiment": "Bead-based cytokine profiling of PDOTS conditioned media", "assay_type": "cell-based, human", "method": "Fresh tumor specimens (murine and human patients) were received in media (DMEM) on ice and minced in a 10 cm dish (on ice) using sterile forceps and scalpel. Minced tumor was resuspended in DMEM (4.5 mM glucose, […] sodium pyruvate, 1:100 penicillin-streptomycin) (Coming CellGro, Manassas, VA)+10% FBS (Gemini Bio-Products, West Sacramento, CA), 100 U/mL collagenase type IV (Life Technologies, Carlsbad, CA), and 15 mM HEPES (Life Technologies, Carlsbad, CA), except for CT26 tumors that were prepared in RPMI. Samples were pelleted and resuspended in 10-20 mL media. Red blood cells were removed from visibly bloody samples using RBC Lysis Buffer (Boston Bio-Products, Ashland, MA). […]\nTwo multiplex assays were performed utilizing a bead-based immunoassay approach, the Bio-Plex Pro™ Human Cytokine 40-plex Assay (Cat #171AK99MR2) and Bio-Plex Pro™ Mouse Cytokine Panel 1, 23-plex (Cat #M60009RDPD) on a Bio-plex 200 system (Cat #171000201). […] Fold changes relative to the MDOT/PDOT control were calculated and plotted as log 2FC. Lower and upper limits of quantitation (LLOQ/ULOQ) were imputed from standard curves for cytokines above or below detection. […]"}
{"substance": "ipilimumab [CTLA-4 blockade]", "values": [{"measurement": "CCL19/CXCL13 induction in PDOTS", "setting": "Day 3, relative to untreated control", "value": "comparatively minimal"}]}
{"substance": "pembrolizumab [PD-1 blockade]", "values": [{"measurement": "PDOTS samples with upregulation of CCL19 and CXCL13", "setting": "Day 3 cytokine release, n=28", "value": "23/28"}]}
